Measurements taken from ChEMBL document CHEMBL1146741, “Cycloalkyl[b][1,4]benzodiazepinoindoles are agonists at the human 5-HT2C receptor” (Bioorg Med Chem Lett, 2004).
Each block holds one compound with its values, some of them ahead of it.

How the values were obtained:
[1] = molecular target: T1, 5-hydroxytryptamine receptor 2A (Homo sapiens, UniProt P28223); test: Agonistic binding affinity against human 5-hydroxytryptamine 2A receptor in CHO cells using [125I]DOI radioligand
[2] = molecular target: T2, 5-hydroxytryptamine receptor 2C (Homo sapiens) (UniProt P28335); test: Agonistic binding affinity against human 5-hydroxytryptamine 2C receptor in CHO cells using [125I]- DOI radioligand, expressed as Emax; assay type: cell-based
T2 sequence (whole entry): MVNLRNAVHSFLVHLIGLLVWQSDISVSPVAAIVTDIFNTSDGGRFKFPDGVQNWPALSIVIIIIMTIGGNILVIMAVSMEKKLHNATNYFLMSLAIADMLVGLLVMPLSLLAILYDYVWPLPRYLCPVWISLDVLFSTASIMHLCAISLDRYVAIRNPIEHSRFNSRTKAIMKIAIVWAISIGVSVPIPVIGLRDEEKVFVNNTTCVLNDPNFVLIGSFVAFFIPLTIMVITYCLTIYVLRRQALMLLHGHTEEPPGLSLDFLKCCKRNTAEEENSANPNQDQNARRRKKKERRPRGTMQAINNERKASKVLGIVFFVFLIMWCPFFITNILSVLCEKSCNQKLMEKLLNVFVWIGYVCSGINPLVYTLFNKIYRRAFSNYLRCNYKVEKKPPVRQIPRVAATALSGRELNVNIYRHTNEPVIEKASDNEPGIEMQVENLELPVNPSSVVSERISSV

[3] = molecular target: T1, 5-hydroxytryptamine receptor 2A; test: Agonistic binding affinity against human 5-hydroxytryptamine 2A receptor in CHO cells using [125I]-DOI
[4] = molecular target: D(4) dopamine receptor (Homo sapiens) (UniProt P21917); test: Percent binding affinity against dopamine receptor D4; conditions: concentration not given here
[5] = molecular target: T1, 5-hydroxytryptamine receptor 2A; test: Effective concentration against human 5-hydroxytryptamine 2A receptor in CHO cells by stimulation of [3H]inositol monophosphate production
[6] = molecular target: T2, 5-hydroxytryptamine receptor 2C (Homo sapiens); test: Agonistic binding efficacy against human 5-hydroxytryptamine 2C receptor in CHO cells using [125I]- DOI radioligand; assay type: cell-based
[7] = molecular target: D(3) dopamine receptor (Homo sapiens) (UniProt P35462); test: Percent binding affinity against dopamine D3 receptor; conditions: concentration not given here
[8] = molecular target: T3, 5-hydroxytryptamine receptor 1A (Homo sapiens) (UniProt P08908); test: Percent binding affinity against 5-hydroxytryptamine 1A receptor; conditions: concentration not given here
T3 sequence (whole entry): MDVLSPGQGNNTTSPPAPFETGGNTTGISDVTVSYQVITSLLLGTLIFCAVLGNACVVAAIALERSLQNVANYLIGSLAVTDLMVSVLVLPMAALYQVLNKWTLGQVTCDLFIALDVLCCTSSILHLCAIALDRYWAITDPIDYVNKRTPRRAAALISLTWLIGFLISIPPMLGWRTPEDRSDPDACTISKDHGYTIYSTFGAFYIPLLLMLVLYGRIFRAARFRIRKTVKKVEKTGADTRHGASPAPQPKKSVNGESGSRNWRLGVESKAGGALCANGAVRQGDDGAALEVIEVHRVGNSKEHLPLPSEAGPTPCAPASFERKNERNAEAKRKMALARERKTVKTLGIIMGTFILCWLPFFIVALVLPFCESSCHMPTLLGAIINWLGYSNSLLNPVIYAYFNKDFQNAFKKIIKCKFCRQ

[9] = molecular target: T4, 5-hydroxytryptamine receptor 2C (Homo sapiens, UniProt P28335); test: Agonistic binding affinity against human 5-hydroxytryptamine 2C receptor in CHO cells using [125I]- DOI; assay type: cell-based
T4 sequence (P28335 whole entry): T2 sequence (whole entry)

T1 sequence (P28223 whole entry): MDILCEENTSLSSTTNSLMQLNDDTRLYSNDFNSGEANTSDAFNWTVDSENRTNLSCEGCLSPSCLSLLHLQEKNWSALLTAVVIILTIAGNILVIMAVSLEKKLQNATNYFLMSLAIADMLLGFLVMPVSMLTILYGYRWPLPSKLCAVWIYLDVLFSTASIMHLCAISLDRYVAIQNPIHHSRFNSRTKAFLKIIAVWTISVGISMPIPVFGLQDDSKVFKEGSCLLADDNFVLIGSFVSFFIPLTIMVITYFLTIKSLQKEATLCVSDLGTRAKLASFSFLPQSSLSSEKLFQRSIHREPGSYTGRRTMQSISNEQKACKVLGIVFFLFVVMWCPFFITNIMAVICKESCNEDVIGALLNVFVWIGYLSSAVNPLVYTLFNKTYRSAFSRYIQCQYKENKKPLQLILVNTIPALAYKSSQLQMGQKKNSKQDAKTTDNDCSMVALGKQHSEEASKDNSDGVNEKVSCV
D(3) dopamine receptor (Homo sapiens), sequence (P35462 whole entry, looked up): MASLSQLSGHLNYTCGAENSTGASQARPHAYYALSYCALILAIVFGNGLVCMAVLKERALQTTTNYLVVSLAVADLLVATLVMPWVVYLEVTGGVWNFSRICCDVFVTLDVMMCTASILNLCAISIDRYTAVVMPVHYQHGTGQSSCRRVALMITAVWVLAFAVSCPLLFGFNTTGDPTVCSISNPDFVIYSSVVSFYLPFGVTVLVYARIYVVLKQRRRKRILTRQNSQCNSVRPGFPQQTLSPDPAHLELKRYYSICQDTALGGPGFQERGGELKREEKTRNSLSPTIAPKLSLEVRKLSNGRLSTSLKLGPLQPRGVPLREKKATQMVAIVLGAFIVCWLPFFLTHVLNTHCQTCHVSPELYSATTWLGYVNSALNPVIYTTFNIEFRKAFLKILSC
D(4) dopamine receptor (Homo sapiens), sequence (P21917 whole entry, looked up): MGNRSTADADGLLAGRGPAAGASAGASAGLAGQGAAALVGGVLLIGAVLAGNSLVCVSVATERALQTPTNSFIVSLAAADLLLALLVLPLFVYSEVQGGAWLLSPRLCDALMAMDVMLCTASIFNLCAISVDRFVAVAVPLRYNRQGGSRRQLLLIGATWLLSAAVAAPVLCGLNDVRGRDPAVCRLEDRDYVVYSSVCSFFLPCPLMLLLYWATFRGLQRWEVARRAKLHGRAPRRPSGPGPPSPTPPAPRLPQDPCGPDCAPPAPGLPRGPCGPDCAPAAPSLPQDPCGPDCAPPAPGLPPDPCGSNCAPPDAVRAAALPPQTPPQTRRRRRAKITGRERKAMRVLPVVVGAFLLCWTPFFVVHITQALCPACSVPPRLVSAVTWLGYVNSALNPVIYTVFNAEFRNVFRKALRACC

SMILES: Cc1cc2c3c(c1)c1c(n3CCNC2)CCC1
Ki [3]: 2530 nM

SMILES: c1cc2c3c(c1)c1c(n3CCNC2)CCCCCC1
inhibition [4]: 47%
EC50 [5]: 64000 nM
Efficacy [6]: 102%
Ki [3]: 36 nM
inhibition [7]: 37%
inhibition [8]: 4%
Emax [2]: 102%

SMILES: CC1(C)Cc2c(c3cccc4c3n2CCNC4)C(C)(C)C1
Ki [3]: 152 nM
Ki [9]: 79 nM

SMILES: c1cc2c3c(c1)c1c(n3CCNC2)CCCCC1
Efficacy [6]: 73%
Ki [3]: 199 nM

SMILES: Fc1ccc2c3c1c1c(n3CCNC2)CCCC1
Ki [9]: 111 nM

Further lines, results first:

Ki [1]: 922 nM
Emax [2]: 90%
SMILES: c1cc2c3c(c1)c1c(n3CCNC2)CCC1

Ki [3]: 1230 nM
SMILES: Cc1cc2c3c(c1)c1c(n3CCNC2)CCCC1

Ki [3]: 1560 nM
SMILES: C[C@@H]1Cn2c3c(c4cccc(c42)CN1)CCCC3
